Data as given in patent US6267945A, “Farnesol-related calcium channel blockers” (NeuroMed Technologies, Inc., priority 1998, dated 2001).
Like-named read-outs stand apart in the source and are kept apart here. Blank lines part the entries; values can stand above or below the molecule they belong to.

Legend:
[1] = biological target: T1, N-type calcium channel (α1B + α2 + β1b) (Rattus norvegicus, UniProt Q02294); experiment: Open-channel block of N-type calcium channels, whole cell patch clamp, holding potential -100 mV; format: cell-based; conditions: for inhibition at 10 µM: read-out: Open/Resting Block (determined at 10 μM); for normalized peak height: -100 mV to +20 mV
T1 construct: expressed in transfected cells; host or cells: HEK293 cells stably expressing, or HEK TSA 201 cells transiently transfected with, α1B + α2 + β1b
Excerpt: (§1) There are two distinguishable types of calcium channel inhibition. […] A second type of block is referred to herein as "inactivation inhibition." When maintained at less negative resting potentials, such as the physiologically important potential of -70 mV, a certain percentage of the receptor channels may undergo conformational change, rendering them incapable of being activated--i.e., opened--by the abrupt depolarization. Thus, the peak current due to calcium ion flow will be diminished not because the open channel is blocked, but because some of the channels are unavailable for opening (inactivated). "Inactivation" type inhibitors increase the percentage of receptors that are inactivated.
(§2) As described above, a more definitive assay can be used to distinguish inhibitors of calcium flow which operate as open channel blockers, as opposed to those that operate by promoting inactivation of the channel. The methods to distinguish these types of inhibition are more particularly described in the examples below. In general, open-channel blockers are assessed by measuring the level of peak current when deploarization is imposed on a background resting potential of about -100 mV in the presence and absence of the candidate compound. Successful open-channel blockers will reduce the peak current observed and accelerate the decay of this current. Compounds that are inactivated channel blockers are determined by their ability to shift the voltage dependence of inactivation towards more negative potentials. This is also reflected in their ability to reduce peak currents at more depolarized holding potentials(e.g., -70 mV).
(§3) Human embryonic kidney TSA 201 cells were grown in standard DMEM medium, supplemented with 10% fetal bovine serum and 0.4 mg/ml neomycin. The cells were grown to 80% confluency, split with trypsin EDTA and plated on glass coverslips at 10% confluency 12 hours prior to transfection. Immediately prior to transfection, the medium was replaced and the cells were transiently transfected with cDNAs encoding calcium channel α1B, β1b and α2 subunits (at a 1:1:1 molar ratio) using a standard calcium phosphate protocol. After 12 hours, the medium was replaced with fresh DMEM and the cells were allowed to recover for 12 hours. Subsequently the cells were incubated at 28° C. in 5% CO2 for 1-2 days prior to recording. Human embryonic kidney cells stably expressing N-type α1B +α2 +β1b were maintained and plated for electrophysiological recordings as described by Zamponi, G. W. et al., Nature (1997) 385:442-446.
Immediately prior to recording, individual cover slips were transferred to a 3 cm culture dish containing an external recording solution. The external recording solution was 20 mM BaCl2, 1 mM MgCl2, 10 mM HEPES, 40 mM TEACl, 10 mM glucose, 65 mM CsCl (pH 7.2) or 5 mM BaCl2, 1 mM MgCl2, 10 mM HEPES, 40 mM TEACl, 10 mM glucose, 87.5 mM CsCl (pH 7.2). […] The internal pipette solution is 105 mM CsCl, 25 mM TEACl, 1 mM CaCl2, 11 mM EGTA, 10 mM HEPES (pH 7.2). Whole cell patch clamp experiments were performed using an Axopatch 200B amplifier (Axon Instruments, Burlingame, Calif.) linked to an IBM compatible personal computer equipped with pCLAMP 6.0 software. Currents were typically elicited from a holding potential of -100 mV to various test potentials. The compounds to be tested were prepared as stock solutions in ethanol and diluted into the recording solution at the appropriate final concentrations, and perfused directly onto the cells using a gravity driven microperfusion system. At the applicable concentrations, ethanol by itself had no effect on calcium channel activity. Data were filtered at 1 kHz and recorded directly on the hard drive of a personal computer. The data were analyzed using ClampFit (Axon Instruments). Curve fitting was carried out in Sigmaplot 4.0 (Jandel Scientific). Steady state inactivation curves were fitted with a Boltzman equation, […]

[2] = biological target: T1, N-type calcium channel (α1B + α2 + β1b); experiment: Inactivation of N-type calcium channels (steady state inactivation, shift in V0.5), whole cell patch clamp; format: cell-based
Excerpt: as §1, §2, §3
Immediately prior to recording, individual cover slips were transferred to a 3 cm culture dish containing an external recording solution. The external recording solution was 20 mM BaCl2, 1 mM MgCl2, 10 mM HEPES, 40 mM TEACl, 10 mM glucose, 65 mM CsCl (pH 7.2) or 5 mM BaCl2, 1 mM MgCl2, 10 mM HEPES, 40 mM TEACl, 10 mM glucose, 87.5 mM CsCl (pH 7.2). […] The internal pipette solution is 105 mM CsCl, 25 mM TEACl, 1 mM CaCl2, 11 mM EGTA, 10 mM HEPES (pH 7.2). Whole cell patch clamp experiments were performed using an Axopatch 200B amplifier (Axon Instruments, Burlingame, Calif.) linked to an IBM compatible personal computer equipped with pCLAMP 6.0 software. Currents were typically elicited from a holding potential of -100 mV to various test potentials. The compounds to be tested were prepared as stock solutions in ethanol and diluted into the recording solution at the appropriate final concentrations, and perfused directly onto the cells using a gravity driven microperfusion system. At the applicable concentrations, ethanol by itself had no effect on calcium channel activity. Data were filtered at 1 kHz and recorded directly on the hard drive of a personal computer. The data were analyzed using ClampFit (Axon Instruments). Curve fitting was carried out in Sigmaplot 4.0 (Jandel Scientific). Steady state inactivation curves were fitted with a Boltzman equation,
Ipeak(normalized) =1/(1+exp((V-Vh)Z/25.6)) […]

[3] = system: P/Q type calcium channel (α1A); experiment: Open-channel block of P/Q-type channels, resting potential -100 mV; format: cell-based; conditions: 25 μM farnesol
Procedure: as §3
(§4) For some experiments, cells were prepared wherein the α1B unit was replaced by α1A (P/Q type) α1C (type L) or α1E (undefined). α1B represents N-type.
(§5) Immediately prior to recording, individual cover slips were transferred to a 3 cm culture dish containing an external recording solution. […] Data were filtered at 1 kHz and recorded directly on the hard drive of a personal computer. The data were analyzed using ClampFit (Axon Instruments). […]

[4] = system: L-type calcium channel (α1C); experiment: Inactivation effect on L-type channels, resting potential -70 mV; format: cell-based; conditions: 250 nM farnesol
Procedure: as §3, §4, §5

α1E calcium channel [5] = experiment: Open-channel block of α1E channels, resting potential -100 mV; format: cell-based; conditions: 25 μM farnesol
Procedure: as §3, §4, §5

[6] = system: L-type calcium channel (α1C); experiment: Open-channel block of L-type channels, resting potential -100 mV; format: cell-based; conditions: 25 μM farnesol
Procedure: as §3, §4, §5

L-type receptors = conditions: micromolar range; cited from earlier work
α1E calcium channel [7] = experiment: Inactivation effect on α1E channels, resting potential -70 mV; format: cell-based; conditions: 250 nM farnesol
Procedure: as §3, §4, §5

[8] = system: P/Q type calcium channel (α1A); experiment: Inactivation effect on P/Q-type channels, resting potential -70 mV; format: cell-based; conditions: 250 nM farnesol
Procedure: as §3, §4, §5

[9] = corrected for control inactivation rate, linear fit

T1 sequence (Q02294 whole entry): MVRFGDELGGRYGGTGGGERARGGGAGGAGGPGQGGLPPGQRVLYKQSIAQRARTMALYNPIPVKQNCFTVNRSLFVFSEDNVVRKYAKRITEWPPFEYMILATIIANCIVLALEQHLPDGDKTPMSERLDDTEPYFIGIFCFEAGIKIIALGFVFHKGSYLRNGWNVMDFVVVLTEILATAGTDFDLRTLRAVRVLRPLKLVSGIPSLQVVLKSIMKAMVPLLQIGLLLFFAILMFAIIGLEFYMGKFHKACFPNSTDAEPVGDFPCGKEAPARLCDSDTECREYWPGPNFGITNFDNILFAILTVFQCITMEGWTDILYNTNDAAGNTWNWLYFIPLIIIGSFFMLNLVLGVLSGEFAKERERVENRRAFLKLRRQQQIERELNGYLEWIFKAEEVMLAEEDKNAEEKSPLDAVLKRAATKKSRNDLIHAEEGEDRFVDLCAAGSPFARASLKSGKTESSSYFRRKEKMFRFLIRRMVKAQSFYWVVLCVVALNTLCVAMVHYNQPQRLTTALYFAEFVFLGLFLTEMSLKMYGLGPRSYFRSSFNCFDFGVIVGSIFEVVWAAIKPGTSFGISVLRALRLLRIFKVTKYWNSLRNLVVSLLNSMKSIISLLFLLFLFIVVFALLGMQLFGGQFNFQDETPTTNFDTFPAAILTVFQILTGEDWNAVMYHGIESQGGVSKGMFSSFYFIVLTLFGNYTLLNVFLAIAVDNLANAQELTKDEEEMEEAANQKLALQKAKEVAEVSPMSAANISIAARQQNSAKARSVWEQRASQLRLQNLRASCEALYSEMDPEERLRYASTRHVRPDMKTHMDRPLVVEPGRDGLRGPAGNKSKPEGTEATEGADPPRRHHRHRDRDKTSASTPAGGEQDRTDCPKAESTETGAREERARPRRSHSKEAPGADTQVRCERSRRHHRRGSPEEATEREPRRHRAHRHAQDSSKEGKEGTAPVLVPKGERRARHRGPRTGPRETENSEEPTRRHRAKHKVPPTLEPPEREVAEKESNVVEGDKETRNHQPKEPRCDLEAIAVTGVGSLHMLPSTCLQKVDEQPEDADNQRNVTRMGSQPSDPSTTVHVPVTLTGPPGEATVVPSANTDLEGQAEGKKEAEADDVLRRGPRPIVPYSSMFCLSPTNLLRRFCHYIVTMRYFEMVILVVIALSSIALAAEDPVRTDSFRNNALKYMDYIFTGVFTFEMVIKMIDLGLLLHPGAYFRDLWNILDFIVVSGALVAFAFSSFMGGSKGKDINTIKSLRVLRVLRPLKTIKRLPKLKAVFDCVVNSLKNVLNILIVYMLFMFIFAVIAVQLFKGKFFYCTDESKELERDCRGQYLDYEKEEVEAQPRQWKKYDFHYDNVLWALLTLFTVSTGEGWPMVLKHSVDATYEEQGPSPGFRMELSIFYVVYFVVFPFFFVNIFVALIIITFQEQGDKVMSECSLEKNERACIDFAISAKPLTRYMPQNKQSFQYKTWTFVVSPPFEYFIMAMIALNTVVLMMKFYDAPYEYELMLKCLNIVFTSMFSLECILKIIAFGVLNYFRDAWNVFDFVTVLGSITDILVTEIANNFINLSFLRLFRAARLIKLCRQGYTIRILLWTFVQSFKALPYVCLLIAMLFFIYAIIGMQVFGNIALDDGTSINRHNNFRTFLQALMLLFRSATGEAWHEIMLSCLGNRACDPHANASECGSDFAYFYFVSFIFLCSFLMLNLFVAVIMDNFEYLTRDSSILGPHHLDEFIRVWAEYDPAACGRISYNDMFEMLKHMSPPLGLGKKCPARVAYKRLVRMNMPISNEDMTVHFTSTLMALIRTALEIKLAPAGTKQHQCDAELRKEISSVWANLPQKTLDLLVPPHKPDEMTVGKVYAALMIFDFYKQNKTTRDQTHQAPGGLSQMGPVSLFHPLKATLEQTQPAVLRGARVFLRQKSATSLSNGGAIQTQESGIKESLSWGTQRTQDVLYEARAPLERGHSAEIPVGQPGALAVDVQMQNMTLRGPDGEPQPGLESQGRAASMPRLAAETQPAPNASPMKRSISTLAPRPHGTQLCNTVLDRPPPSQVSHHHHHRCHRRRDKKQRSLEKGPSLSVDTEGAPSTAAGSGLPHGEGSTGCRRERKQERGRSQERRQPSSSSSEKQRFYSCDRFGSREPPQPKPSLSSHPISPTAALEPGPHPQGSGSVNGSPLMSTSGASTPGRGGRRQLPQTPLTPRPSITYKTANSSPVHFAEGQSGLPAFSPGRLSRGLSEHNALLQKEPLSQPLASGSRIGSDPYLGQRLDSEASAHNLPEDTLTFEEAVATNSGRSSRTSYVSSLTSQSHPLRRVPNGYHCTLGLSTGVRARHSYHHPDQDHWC
T1 sequence (P54290 25-944 partner limits assumed): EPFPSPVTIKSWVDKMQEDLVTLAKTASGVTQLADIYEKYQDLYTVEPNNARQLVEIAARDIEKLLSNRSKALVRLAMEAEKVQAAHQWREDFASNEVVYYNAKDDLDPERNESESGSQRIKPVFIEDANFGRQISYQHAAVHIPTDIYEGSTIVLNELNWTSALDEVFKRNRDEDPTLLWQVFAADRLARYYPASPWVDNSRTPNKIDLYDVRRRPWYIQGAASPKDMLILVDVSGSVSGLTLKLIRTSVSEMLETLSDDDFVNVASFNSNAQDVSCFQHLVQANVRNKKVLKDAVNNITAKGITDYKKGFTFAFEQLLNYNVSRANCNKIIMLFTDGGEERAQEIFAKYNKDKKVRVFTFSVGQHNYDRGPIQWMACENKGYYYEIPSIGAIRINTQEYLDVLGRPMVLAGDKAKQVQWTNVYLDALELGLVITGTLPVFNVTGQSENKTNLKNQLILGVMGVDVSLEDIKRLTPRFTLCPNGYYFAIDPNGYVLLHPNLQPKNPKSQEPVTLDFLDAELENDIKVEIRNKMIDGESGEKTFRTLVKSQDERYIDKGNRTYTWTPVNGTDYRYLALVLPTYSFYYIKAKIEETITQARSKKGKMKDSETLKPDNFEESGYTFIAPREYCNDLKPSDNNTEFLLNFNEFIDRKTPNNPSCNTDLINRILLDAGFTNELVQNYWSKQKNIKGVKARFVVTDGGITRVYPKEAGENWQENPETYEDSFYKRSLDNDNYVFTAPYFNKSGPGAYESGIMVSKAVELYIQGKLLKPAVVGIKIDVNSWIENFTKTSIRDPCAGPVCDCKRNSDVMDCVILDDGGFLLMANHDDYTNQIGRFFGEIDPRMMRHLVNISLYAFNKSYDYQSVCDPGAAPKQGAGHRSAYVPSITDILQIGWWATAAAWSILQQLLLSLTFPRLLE
T1 sequence (P54290 945-1091 partner limits assumed): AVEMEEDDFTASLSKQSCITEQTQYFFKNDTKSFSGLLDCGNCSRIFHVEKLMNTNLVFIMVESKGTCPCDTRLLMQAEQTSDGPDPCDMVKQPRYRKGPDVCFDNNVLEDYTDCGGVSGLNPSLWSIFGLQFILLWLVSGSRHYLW
T1 sequence (P54283 whole entry partner): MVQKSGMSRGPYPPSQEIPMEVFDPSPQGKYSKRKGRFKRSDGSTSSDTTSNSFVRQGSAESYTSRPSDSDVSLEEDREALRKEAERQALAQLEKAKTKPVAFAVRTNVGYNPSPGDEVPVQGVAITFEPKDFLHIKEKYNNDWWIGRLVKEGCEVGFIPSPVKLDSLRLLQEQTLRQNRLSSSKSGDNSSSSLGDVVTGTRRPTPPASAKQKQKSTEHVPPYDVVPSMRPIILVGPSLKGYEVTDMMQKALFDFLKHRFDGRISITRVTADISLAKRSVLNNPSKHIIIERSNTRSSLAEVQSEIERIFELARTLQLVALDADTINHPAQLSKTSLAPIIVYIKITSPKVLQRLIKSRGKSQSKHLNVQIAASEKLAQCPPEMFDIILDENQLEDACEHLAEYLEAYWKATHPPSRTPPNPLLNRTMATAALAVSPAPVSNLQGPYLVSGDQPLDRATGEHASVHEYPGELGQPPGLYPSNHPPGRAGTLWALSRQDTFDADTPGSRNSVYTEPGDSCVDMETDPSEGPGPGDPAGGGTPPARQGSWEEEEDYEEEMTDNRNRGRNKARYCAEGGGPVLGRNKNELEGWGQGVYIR

- inhibition at 10 µM [1]: 90 to 100%
- Inactivated Block (shift in V0.5) [2]: ~ 20 mV
Structure (SMILES): CC(=O)OCC=C(C)CCC=C(C)CCC=C(C)C [farnesyl acetate]

- nonspecific open-channel blocking activity (summary in words) [1]: relatively lacking
- inhibition at 10 µM [1]: 20 to 30%
- Inactivated Block (shift in V0.5) [2]: ~ 20 mV
Structure (SMILES): CC(C)=CCCC(C)=CCCC(C)=CCBr [farnesyl bromide]
- inactivation-type inhibition specific to the N-type receptor (summary in words) [2]: able to promote substantial inactivation-type inhibition

- nonspecific open-channel blocking activity (summary in words) [1]: relatively lacking
- Open/Resting Block (determined at 10 μM) [1]: Not active
- Inactivated Block (shift in V0.5) [2]: ~ 10 mV
Structure (SMILES): COC(=O)C=C(C)CCC=C(C)CCC1OC1(C)C (stereo not drawn) [juvenile hormone III]
- inactivation-type inhibition specific to the N-type receptor (summary in words) [2]: able to promote substantial inactivation-type inhibition

More lines, now with the values behind:

Structure (SMILES): CC(C)CCCC(C)CCCC(C)CCCC(C)C (stereo not drawn)
- nonspecific open-channel blocking activity (summary in words) [1]: relatively lacking
- Open/Resting Block (determined at 10 μM) [1]: < 10%
- Inactivated Block (shift in V0.5) [2]: ~ 10 mV
- inactivation-type inhibition specific to the N-type receptor (summary in words) [2]: able to promote substantial inactivation-type inhibition

Structure (SMILES): CCCCCCCCCCN [decylamine]
- inhibition at 10 µM [1]: > 80%
- Inactivated Block (shift in V0.5) [2]: ~ 10 mV

Structure (SMILES): CCCCCCCCCCCC [dodecane]
- nonspecific open-channel blocking activity (summary in words) [1]: relatively lacking
- inhibition at 10 µM [1]: 10 to 20%
- Inactivated Block (shift in V0.5) [2]: ~ 10 mV
- inactivation-type inhibition specific to the N-type receptor (summary in words) [2]: able to promote substantial inactivation-type inhibition

Structure (SMILES): CCCCCCCCCCCCN [dodecylamine]
- inhibition at 10 µM [1]: 90 to 100%
- Inactivated Block (shift in V0.5) [2]: ~ 10 mV

Structure (SMILES): CC(C)=CCCC(C)=CCCC(C)=CCO [farnesol]
- normalized peak height ([1]; 5 μM farnesol): diminished
- time to decay of current to the resting level ([1]; 5 μM or 25 μM farnesol): accelerated time to decay to the resting level
- position of peak amplitude with respect to depolarization voltage (current/voltage relationship) ([1]; 10 μM farnesol): no dependence
- normalized peak height ([1]; 25 μM farnesol): further dramatically diminished
- open channel blocking effect on current amplitudes ([1]; 25 μM farnesol, resting potential -100 mV): diminished peak heights
- peak currents upon removal of farnesol (reversibility) ([1]; after 5 μM and 25 μM farnesol): regenerated
- intercept of inverse time constant for current decay versus farnesol concentration [1, 9]: 7.6
- slope of inverse time constant for current decay versus farnesol concentration [1, 9]: 4.8
- inhibition at 10 µM [1]: 60%
- open channel blocking effect on current amplitudes [3]: diminished peak heights
- peak current at -70 mV resting potential normalized to -100 mV [4]: Only the N-type channels show substantially diminished values
- Inactivated Block (shift in V0.5) [2]: 10-25 mV
- V0.5 ([2]; 100 nM farnesol): -70 mV
- time course of development of current amplitude diminution ([2]; 100 nM farnesol, resting potential -70 mV): slower than that obtained at a resting potential of -100 mV
- recovery from block ([2]; 100 nM farnesol, resting potential -70 mV, compared with open-channel blockage): much slower
- peak current at -70 mV resting potential normalized to -100 mV ([2]; 250 nM farnesol): substantially diminished
- reversibility of effect ([2]; 250 nM farnesol, holding -70 mV to test +10 mV): does not appear to be completely reversible
- Z slope factor (Boltzman fit) ([2]; 25 μM farnesol): 3.8
- shift in V0.5 ([2]; 25 μM farnesol): about 20 mV
- V0.5 (resting potential that diminishes peak currents to 1/2) ([2]; 25 μM farnesol present, mean values): -70 mV
- Vh (Boltzman fit of steady state inactivation) ([2]; 25 μM farnesol, test potential +20 mV): -68.7 mV
- Vh (Boltzman fit of steady state inactivation) ([2]; Wash, after 25 μM farnesol): -56.5 mV
- Z slope factor (Boltzman fit) ([2]; Wash, after 25 μM farnesol): 4.0
- activity at 25 µM ([2]; read-out: peak current value (normalized to -100 mV resting potential)): 50%
- activity at 25 µM ([2]; read-out: peak value as % of base value (normalized to -100 mV resting potential)): 80%
- open channel blocking effect on current amplitudes (α1E calcium channel [5]): diminished peak heights
- channel type preference of open channel block [6]: preferentially inhibited
- open channel blocking effect on current amplitudes [6]: diminished peak heights
- calcium-channel blocking, open channel blockage, channel preference (L-type receptors): preference for inhibition of L-type receptors
- peak current at -70 mV resting potential normalized to -100 mV (α1E calcium channel [7]): Only the N-type channels show substantially diminished values
- peak current at -70 mV resting potential normalized to -100 mV [8]: Only the N-type channels show substantially diminished values

Structure (SMILES): CC(C)=CCCC(C)=CCCC(C)=CCOP(=O)(O)OP(=O)(O)O [farnesyl pyrophosphate]
- Open/Resting Block (determined at 10 μM) [1]: Not active
